The source of these data is ChEMBL document CHEMBL1201862, “PubChem BioAssay data set” (2004).

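Briefly, cells in 96-well plates were exposed to five compound concentrations for 48 h, and endpoints were estimated by linear interpolation. Abbreviation: GI50, concentration required for 50% inhibition of growth.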 The source made the active and inactive calls. Cut-off read from the data, not from the text of the source: active = GI50 up to about 1.1 µM and inactive = higher.

Some test systems named below: 786-0; A549; MOLT-4; NCI-H460; SF-295; SW-620; KM12; UO-31; NCI-H23; NCI-H226; EKVX; SNB-19; K562; SK-OV-3; OVCAR-3.
What all share (test): inhibition of tumour cell growth, NCI panel, 48 h

`Oc1ncnc2c1sc(=S)n2-c1ccccc1`: the GI50 in the assay on 786-0, in the assay with A549, in the assay on MOLT-4, in the assay with NCI-H460, in the assay with SF-295 and in the assay on SW-620 was > 100 µM (inactive) each time. In addition, the GI50 in the assay with KM12 was > 100 µM (inactive); with UO-31 it was 74.6 µM (inactive); with NCI-H23 it was > 100 µM (inactive); in the assay on NCI-H226 it was > 100 µM (inactive); in the assay on EKVX, > 100 µM (inactive); in the assay on SNB-19 it was > 100 µM (inactive). Besides, the GI50 in the assay with K562, in the assay with SK-OV-3 and with OVCAR-3 was > 100 µM (inactive) each time.

As for `CC1=C(O)/C(=C/C(C)CCC/C(C)=C/C=C/C(C)CCCc2ccoc2)OC1=O` (configuration not stated), the GI50 in the assay on 786-0 is 25.5 µM (inactive); in the assay with A549, 27.2 µM (inactive); with NCI-H460, 30.3 µM (inactive); in the assay on SF-295, 31.9 µM (inactive); with SW-620, 33.3 µM (inactive); in the assay on KM12, 34.4 µM (inactive). The GI50 with UO-31 was 69.2 µM (inactive); with NCI-H23 it was 23.7 µM (inactive); in the assay on NCI-H226, 23.2 µM (inactive); in the assay on EKVX, 25 µM (inactive).

Take `Cc1ccc(/N=N/c2c(-c3ccccc3)nn(C(=O)CC(=O)Nc3ccc(Cl)cc3)c2-c2ccccc2)cc1`: the GI50 with 786-0 is 36.5 µM (inactive); with A549 it was 78.9 µM (inactive); in the assay on MOLT-4, 21.3 µM (inactive); in the assay on NCI-H460 it was > 100 µM (inactive); with SF-295, 24.4 µM (inactive); in the assay with SW-620, 90.8 µM (inactive). Besides, the GI50 in the assay on KM12 is 38.3 µM (inactive); in the assay with UO-31, 27.7 µM (inactive); with NCI-H23, 44.2 µM (inactive); with NCI-H226, 36.6 µM (inactive); with EKVX it was 2.3 µM (inactive); in the assay with SNB-19, 49.7 µM (inactive). Further, the results for the GI50 in the assay on K562, in the assay on SK-OV-3 and with OVCAR-3 were 42.1 µM (inactive), > 100 µM (inactive) and 26.2 µM (inactive), respectively.

Take `CCn1c(SC(C)C(=O)c2c(C)n(C)n(-c3ccccc3)c2=O)nc2ccccc2c1=O` (configuration not stated): the GI50 in the assay with 786-0, in the assay with A549, in the assay on MOLT-4, in the assay on NCI-H460, in the assay on SF-295 and in the assay on KM12 was > 100 µM (inactive) throughout. Also, the GI50 is > 100 µM (inactive) in the assay on UO-31; > 100 µM (inactive) in the assay on NCI-H23; > 100 µM (inactive) in the assay on NCI-H226; 36.4 µM (inactive) in the assay on EKVX; > 100 µM (inactive) in the assay on SK-OV-3; > 100 µM (inactive) in the assay with OVCAR-3.

`CC1c2[nH]c3ccccc3c2CCN1O` (configuration not stated): the GI50 with 786-0, in the assay on A549, in the assay with MOLT-4, with SF-295, with SW-620 and in the assay with KM12 was > 100 µM (inactive) in each case. The GI50 with UO-31 is 29.4 µM (inactive); in the assay with NCI-H23 it was > 100 µM (inactive); in the assay on NCI-H226, 23.1 µM (inactive); with EKVX, > 100 µM (inactive); in the assay with SNB-19, > 100 µM (inactive); with K562 it was > 100 µM (inactive). The GI50 in the assay with SK-OV-3 and with OVCAR-3 was > 100 µM (inactive) throughout.

On to `CN(C)c1n/c(=N/c2ccc3c(c2)OCO3)ss1`, for which the GI50 is 70.6 µM (inactive) in the assay with 786-0; 44.6 µM (inactive) with A549; 22.4 µM (inactive) in the assay on MOLT-4; 47.4 µM (inactive) in the assay on NCI-H460; > 100 µM (inactive) in the assay with SF-295; 74 µM (inactive) with SW-620. In addition, the GI50 in the assay on KM12 is 51.5 µM (inactive); in the assay with UO-31, 27.2 µM (inactive); with NCI-H23 it was 66.4 µM (inactive); in the assay on NCI-H226, > 100 µM (inactive); in the assay on EKVX, 49.9 µM (inactive); with SNB-19, 74.5 µM (inactive). Moreover, the GI50 in the assay on K562 is 34.8 µM (inactive); in the assay with SK-OV-3, > 100 µM (inactive).

As to `CSc1nc(NC2OCC(OC(C)=O)C(OC(C)=O)C2OC(C)=O)c2c(n1)OCC2=O` (configuration not stated), the GI50 in the assay on 786-0, in the assay on A549, with MOLT-4, in the assay on NCI-H460, in the assay with SF-295 and in the assay with SW-620 was > 100 µM (inactive) each time. Besides, the GI50 in the assay on KM12, in the assay with UO-31, in the assay with NCI-H23, in the assay with NCI-H226, in the assay with EKVX and in the assay with SNB-19 was > 100 µM (inactive) in each case. Also, the GI50 with K562, in the assay with SK-OV-3 and with OVCAR-3 was > 100 µM (inactive) throughout.

`NC(=O)C12CCC1C1CCCCC12N1CCOCC1` (configuration not stated): the GI50 in the assay with 786-0, with A549, in the assay on MOLT-4, in the assay with NCI-H460, in the assay on SF-295 and in the assay with SW-620 was > 100 µM (inactive) throughout. Besides, the GI50 in the assay with KM12, with UO-31, with NCI-H23, in the assay with EKVX, with SNB-19 and with K562 was > 100 µM (inactive) throughout. Moreover, the GI50 in the assay with SK-OV-3 and in the assay on OVCAR-3 was > 100 µM (inactive) each time.

With `COC(=O)C1Cc2c(n(C)c3ccccc23)C(c2ccccc2)N1` (configuration not stated), the GI50 in the assay with 786-0 was 80 µM (inactive); in the assay on A549, > 100 µM (inactive); with MOLT-4 it was 29.6 µM (inactive); in the assay with NCI-H460, 60.5 µM (inactive); with SF-295, > 100 µM (inactive); with SW-620, > 100 µM (inactive). In addition, the GI50 with KM12 is > 100 µM (inactive); in the assay on UO-31, > 100 µM (inactive); with NCI-H23, > 100 µM (inactive); in the assay on NCI-H226, 22.6 µM (inactive); with EKVX it was 92.3 µM (inactive); in the assay with SNB-19, > 100 µM (inactive). Also, the GI50 is 47.6 µM (inactive) in the assay on K562, > 100 µM (inactive) with SK-OV-3 and 53 µM (inactive) with OVCAR-3.

As to `O/N=C1/C(=C/c2ccc3c(c2)OCO3)CCCC1C(NO)c1ccc2c(c1)OCO2` (configuration not stated), the GI50 was 28.9 µM (inactive) in the assay with 786-0; 29.9 µM (inactive) with A549; 16.9 µM (inactive) in the assay with MOLT-4; 29.4 µM (inactive) in the assay on NCI-H460; 30.8 µM (inactive) in the assay with SW-620; 22.7 µM (inactive) with KM12. Also, the GI50 in the assay on UO-31 is 23.4 µM (inactive); in the assay on NCI-H23 it was 30.4 µM (inactive); in the assay with EKVX, 35.1 µM (inactive); with SNB-19 it was 32.4 µM (inactive); with K562 it was 24.9 µM (inactive); in the assay on SK-OV-3 it was 48.2 µM (inactive). In addition, the GI50 with OVCAR-3 was 14.6 µM (inactive).

As to `Clc1cc(Cl)c2n[se]nc2c1`, the GI50 in the assay on 786-0, in the assay on A549, in the assay with MOLT-4, in the assay with NCI-H460, with SF-295 and with SW-620 was > 100 µM (inactive) in each case. In addition, the GI50 in the assay with KM12, in the assay with UO-31, in the assay on NCI-H23, in the assay on EKVX, with SNB-19 and in the assay with K562 was > 100 µM (inactive) throughout. Besides, the GI50 in the assay with SK-OV-3 was > 100 µM (inactive).

For the compound `Cc1nc(-c2cccnc2)sc1C(=O)/C=C/c1ccc(Cl)cc1Cl`, the GI50 in the assay on 786-0 is > 100 µM (inactive); in the assay on A549, > 100 µM (inactive); with MOLT-4 it was 73.6 µM (inactive); in the assay with NCI-H460, > 100 µM (inactive); in the assay with SF-295, > 100 µM (inactive); in the assay on SW-620, 71.9 µM (inactive). In addition, the GI50 with KM12 is > 100 µM (inactive); in the assay on UO-31, > 100 µM (inactive); with NCI-H23, > 100 µM (inactive); in the assay with NCI-H226, > 100 µM (inactive); in the assay on EKVX, > 100 µM (inactive); in the assay on K562 it was 76.4 µM (inactive). Also, the GI50 with SK-OV-3 and in the assay with OVCAR-3 was > 100 µM (inactive) each time.

As for `CCN(CC)[C@@H]1c2cc3c(cc2C(c2cc(OC)c(O)c(OC)c2)C2C(=O)CO[C@@H]21)OCO3` (some centres not stated), the GI50 in the assay with 786-0, in the assay with A549, with MOLT-4, in the assay on NCI-H460, with SF-295 and in the assay on SW-620 was > 100 µM (inactive) throughout. For the same compound, the GI50 in the assay with KM12, in the assay on UO-31, with NCI-H23, with NCI-H226, in the assay with EKVX and in the assay on K562 was > 100 µM (inactive) each time. The GI50 with SK-OV-3 was > 100 µM (inactive).

Turning to `C=C1CC[C@@H]2C(C)(C)CCC[C@@]2(C)[C@@H]1Cc1cc(O)ccc1O`, the GI50 was 3.4 µM (inactive) in the assay with 786-0; 5.36 µM (inactive) with A549; 0.912 µM (active) in the assay on MOLT-4; 14 µM (inactive) in the assay on NCI-H460; 10.2 µM (inactive) in the assay on SF-295; 8.43 µM (inactive) in the assay with SW-620. Moreover, the GI50 in the assay on KM12 is 6.18 µM (inactive); in the assay with UO-31 it was 2.52 µM (inactive); in the assay with NCI-H23 it was 5.97 µM (inactive); in the assay on NCI-H226 it was 2.55 µM (inactive); in the assay with EKVX, 4.65 µM (inactive); with SNB-19 it was 6.24 µM (inactive). For the same compound, the GI50 is 3.44 µM (inactive) in the assay with K562, 2.3 µM (inactive) in the assay on SK-OV-3 and 5.31 µM (inactive) in the assay with OVCAR-3.
